Results published in patent publication US7332506B2, “Substituted-3-indolyl-4-piperidino-alkyl heterocycles for the treatment of depression” (Wyeth, priority 2002, dated 2008).
Where two headings read alike, the source gives them in different places.

Assays:
[1] = biological target: T1, human 5-HT1A receptors (Homo sapiens, UniProt P08908); assay: [3H] 8-OH-DPAT displacement from the 5-HT1A serotonin receptor (CHO cells); type: binding; settings: for inhibition at 1 µM: @ 1000 nM, printed in the 5-HT1A Ki column
T1 construct: expressed in transfected cells; host or cells: CHO cells
T1 sequence (P08908 1-422): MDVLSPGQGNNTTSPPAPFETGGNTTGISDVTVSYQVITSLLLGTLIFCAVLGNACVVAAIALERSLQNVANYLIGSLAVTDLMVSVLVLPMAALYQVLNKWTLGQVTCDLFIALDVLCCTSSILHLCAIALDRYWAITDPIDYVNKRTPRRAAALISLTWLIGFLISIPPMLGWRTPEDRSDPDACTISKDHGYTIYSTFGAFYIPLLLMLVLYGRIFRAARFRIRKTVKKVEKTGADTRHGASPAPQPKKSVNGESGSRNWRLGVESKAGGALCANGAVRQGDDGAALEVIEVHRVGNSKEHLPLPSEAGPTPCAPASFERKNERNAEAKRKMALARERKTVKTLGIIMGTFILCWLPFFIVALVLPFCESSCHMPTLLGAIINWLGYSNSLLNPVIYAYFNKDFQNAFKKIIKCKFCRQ
Text: High affinity for the serotonin 5-HT1A receptor was established by testing the claimed compound's ability to displace [^3H] 8-OH-DPAT (dipropylaminotetralin) from the 5-HT1A serotonin receptor following a modification of the procedure of Hall et al., J. Neurochem. 44, 1685 (1985) which utilizes CHO cells stably transfected with human 5-HT1A receptors.

[2] = biological target: T2, 5-HT transporter (Rattus norvegicus, UniProt P31652); assay: Rat Brain 3H-Paroxetine Binding Assay (RB 5HT Transporter)
T2 construct: from tissue; host or cells: rat frontal cortex membranes (male Sprague-Dawley rats)
T2 sequence (P31652 whole entry): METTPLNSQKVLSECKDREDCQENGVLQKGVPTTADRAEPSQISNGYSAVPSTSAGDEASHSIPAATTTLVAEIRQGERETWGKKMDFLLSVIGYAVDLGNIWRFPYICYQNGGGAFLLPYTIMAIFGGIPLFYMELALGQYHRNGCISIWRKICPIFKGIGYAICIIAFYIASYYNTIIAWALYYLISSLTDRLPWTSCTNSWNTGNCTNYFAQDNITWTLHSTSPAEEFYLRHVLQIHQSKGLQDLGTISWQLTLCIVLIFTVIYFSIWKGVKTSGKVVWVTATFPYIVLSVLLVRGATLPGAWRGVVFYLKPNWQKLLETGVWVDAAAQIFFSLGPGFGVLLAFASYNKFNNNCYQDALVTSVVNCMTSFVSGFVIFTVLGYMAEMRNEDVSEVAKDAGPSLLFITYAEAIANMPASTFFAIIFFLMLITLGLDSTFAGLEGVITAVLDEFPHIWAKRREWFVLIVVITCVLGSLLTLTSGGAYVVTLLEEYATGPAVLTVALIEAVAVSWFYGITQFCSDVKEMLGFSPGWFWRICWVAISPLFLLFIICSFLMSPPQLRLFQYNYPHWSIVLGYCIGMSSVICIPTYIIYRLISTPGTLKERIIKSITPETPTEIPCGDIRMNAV
Procedure: Rat Brain ^3H-Paroxetine Binding Assay (RB 5HT Transporter):
This assay was used to determine a compound's affinity of the 5-HT transporter.
A protocol similar to that used by Cheetham et. al. (Neuropharmacol. 1993, 32, 737) was used. Briefly, frontal cortical membranes prepared from male S.D. rats were incubated with ^3H-parxetine (0.1 nM) for 60 min. at 25° C. All tubes also contained either vehicle, test compound (one to eight concentrations), or a saturating concentration of fluoxetine (10 μM) to define […]. All reactions are terminated by the addition of ice cold Tris buffer followed by rapid filtration using a Tom Tech filtration device to separate bound from free ^3H-paroxetine. Bound radioactivity was quantitated using a Wallac 1205 Beta Plate® counter. Nonlinear regression analysis was used to determine IC50 values which were converted to Ki values using the method of Cheng and Prusoff (Biochem. Pharmacol. 1973, 22, 3099);

[3] = biological target: T3, Human 5-HT Transporter (Homo sapiens, UniProt P31645); assay: Inhibition of 3H-5-HT Uptake by cells Possessing the Human 5-HT Transporter (HC 5HT Transporter); type: cell-based
T3 construct: endogenous in cells; host or cells: Jar cells (human carcinoma), treated with staurosporine
T3 sequence (P31645 whole entry): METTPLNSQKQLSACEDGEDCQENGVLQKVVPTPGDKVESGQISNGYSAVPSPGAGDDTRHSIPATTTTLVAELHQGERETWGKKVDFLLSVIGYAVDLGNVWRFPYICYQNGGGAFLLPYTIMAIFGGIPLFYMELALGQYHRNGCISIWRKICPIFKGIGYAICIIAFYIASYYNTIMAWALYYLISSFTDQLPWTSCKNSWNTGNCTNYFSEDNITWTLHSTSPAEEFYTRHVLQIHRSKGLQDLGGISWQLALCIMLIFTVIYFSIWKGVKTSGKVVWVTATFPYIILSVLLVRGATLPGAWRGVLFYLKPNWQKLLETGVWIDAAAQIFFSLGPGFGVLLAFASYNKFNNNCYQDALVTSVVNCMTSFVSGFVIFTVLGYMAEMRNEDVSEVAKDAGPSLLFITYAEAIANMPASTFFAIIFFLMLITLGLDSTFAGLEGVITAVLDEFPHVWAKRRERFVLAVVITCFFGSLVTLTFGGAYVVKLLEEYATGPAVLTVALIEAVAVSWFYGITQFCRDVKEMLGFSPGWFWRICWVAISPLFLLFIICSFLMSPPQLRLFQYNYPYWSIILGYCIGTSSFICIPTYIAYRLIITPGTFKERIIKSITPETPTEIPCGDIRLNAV
Procedure: [Staurosporine greatly increases the expression of the 5-HT-transporter.] On the day of assay, vehicle, excess of fluoxetine, or test compound is added to various wells on the plate. All wells then receive ^3H-5-HT and are incubated at 37° C. for 5 min. The wells are then washed with ice cold 50 mM Tris HCl (pH 7.4) buffer and aspirated to remove free ^3H-5-HT. 25 μl of 0.25 M NaOH is then added to each well to lyse the cells and 75 μl scintillation cocktail (Microscint™ 20) added prior to quantitation on a Packard TopCount machine. Tubes with vehicle represent total possible uptake, radioactivity counted in tubes with fluoxetine represent nonspecific binding/uptake and is subtracted from the total possible uptake to give total possible specific uptake. This nonspecific binding (usual low in number) is then subtracted from the counts obtained in wells with various test compounds (or different concentrations of test drug) to give specific uptake in the presence of drug. Specific uptake is then expressed as a % of control values and is analyzed using nonlinear regression analysis (Prizm) to determine IC50 values. If the compound is active at inhibiting 5-HT uptake, its counts will be close to that obtained with fluoxetine.

[4] = Jar cells, 3H-5-HT uptake, read-out: HC 5HT Transporter IC50
[5] = [3H] 8-OH-DPAT displacement, CHO cells with human 5-HT1A receptors, read-out: 5-HT1A Ki
[6] = rat frontal cortical membranes, 3H-paroxetine, read-out: RB 5HT Transporter Ki

SMILES | melting point | IC50 [3, 4] | Ki [2, 6] | Ki [2] | Ki [1, 5] | inhibition at 1 µM [1] | also measured
O=c1n(CCCCN2CC=C(c3c[nH]c4ccccc34)CC2)nc2ccccn12 | 123.2 °C |  |  |  |  |  | 
COc1cc2ncn(CCN3CC=C(c4c[nH]c5ccccc45)CC3)c(=O)c2cc1OC [Example 1, 3-[2-(4-(1H-indol-3-yl)-3,6-dihydro-1(2H)-pyridinyl)ethyl]-6-7-dimethoxy-4(3H)-quinazolinone] | 219 °C | 125 nM |  | 2.87 nM |  |  | Ki [1]: 83.8 nM
COc1cc2ncn(CCN3CC=C(c4c[nH]c5ccc(F)cc45)CC3)c(=O)c2cc1OC [Example 3, 3-[2-(4-(5-fluoro-1H-indol-3-yl)-3,6-dihydro-1(2H)-pyridinyl)ethyl]-6-7-dimethoxy-4(3H)-quinazolinone] | 210 °C |  | 4.57 nM |  | 82.2 nM |  | 
COc1cc2ncn(CCCCN3CC=C(c4c[nH]c5ccccc45)CC3)c(=O)c2cc1OC [Example 4, 3-[4-(4-(1H-indol-3-yl)-3,6-dihydro-1(2H)-pyridinyl)butyl]-6-7-dimethoxy-4(3H)-quinazolinone] |  | 132 nM |  | 1.25 nM | 215 nM |  | 
COc1cc2ncn(CCCN3CC=C(c4c[nH]c5ccccc45)CC3)c(=O)c2cc1OC [Example 6, 3-[3-(4-(1H-indol-3-yl)-3,6-dihydro-1(2H)-pyridinyl)propyl]-6-7-dimethoxy-4(3H)-quinazolinone] |  |  |  | 0.8 nM | 286 nM |  | IC50 [3]: 43.2 nM
COc1cc2ncn(CCCN3CC=C(c4c[nH]c5ccc(F)cc45)CC3)c(=O)c2cc1OC [Example 8, 3-[3-(4-(5-fluoro-1H-indol-3-yl)-3,6-dihydro-1(2H)-pyridinyl)propyl]-6-7-dimethoxy-4(3H)-quinazolinone] | 120 °C |  |  | 1.92 nM |  | 31% | 
O=c1c2cc(Cl)cc(Br)c2ncn1CCCN1CC=C(c2c[nH]c3ccccc23)CC1 [Example 9, 8-bromo-6-chloro-3-[3-(4-(1H-indol-3-yl)-3,6-dihydro-1(2H)-pyridinyl)propyl]-4(3H)-quinazolinone] | 192 °C |  |  | 0.31 nM |  | 4% | 
O=c1c2cc(Cl)ccc2ncn1CCCN1CC=C(c2c[nH]c3ccccc23)CC1 [Example 10, 6-chloro-3-[3-(4-(1H-indol-3-yl)-3,6-dihydro-1(2H)-pyridinyl)propyl]-4(3H)-quinazolinone] |  | 268 nM |  | 1.14 nM |  | 7% | 
O=c1c2ccccc2ncn1CCN1CC=C(c2c[nH]c3ccccc23)CC1 [Example 12, 3-[2-(4-(1H-indol-3-yl)-3,6-dihydro-1(2H)-pyridinyl)ethyl]-4(3H)-quinazolinone] |  | 88.1 nM | 5.5 nM |  | 38.2 nM |  | 
O=c1c2cc(F)ccc2ncn1CCN1CC=C(c2c[nH]c3ccccc23)CC1 [Example 15, 6-fluoro-3-{2-[4-(1H-indol-3-yl)-3,6-dihydro-1(2H)-pyridinyl]ethyl}-4(3H)-quinazolinone] | 138 °C | 159 nM |  | 19 nM |  | 44% | 
O=c1c2ccccc2nnn1CCN1CC=C(c2c[nH]c3ccccc23)CC1 [Example 16, 3-[2-(4-(1H-indol-3-yl)-3,6-dihydro-1(2H)-pyridinyl)ethyl]-1,2,3-benzotriazin-4(3H)-one] |  | 37.5 nM | 3.52 nM |  | 56.7 nM |  | 
O=c1c2ccccc2nnn1CCCN1CC=C(c2c[nH]c3ccccc23)CC1 [Example 19, 3-[3-(4-(1H-indol-3-yl)-3,6-dihydro-1(2H)-pyridinyl)propyl]-1,2,3-benzotriazin-4(3H)-one] |  |  |  | 0.15 nM | 315 nM |  | IC50 [3]: 15.7 nM
Cn1cc(C2=CCN(CCCn3nnc4ccccc4c3=O)CC2)c2ccccc21 [Example 21, 3-[3-(4-(1-methyl-1H-indol-3-yl)-3,6-dihydro-1(2H)-pyridinyl)propyl]-1,2,3-benzotriazin-4(3H)-one] | 70 °C |  |  | 0.56 nM | 631 nM |  | 

The next lines start with results.

melting point | IC50 [3, 4] | Ki [2, 6] | SMILES | Ki [2] | Ki [1, 5] | inhibition at 1 µM [1] | also measured
173.3 °C |  |  | O=c1n(CCCN2CC=C(c3c[nH]c4ccccc34)CC2)nc2ccccn12 |  |  |  | 
170.4 °C |  |  | O=c1n(CCN2CC=C(c3c[nH]c4ccccc34)CC2)nc2ccccn12 |  |  |  | 
230 °C | 273 nM | 36 nM | COc1cc2ncn(CCN3CCC(c4c[nH]c5ccccc45)CC3)c(=O)c2cc1OC [Example 2, 3-{2-[4-(1H-indol-3-yl)-1-piperidinyl]ethyl}-6-7-dimethoxy-4(3H)-quinazolinone] |  | 72.1 nM |  | 
 | 55.3 nM | 4.12 nM | COc1cc2ncn(CCCCN3CCC(c4c[nH]c5ccccc45)CC3)c(=O)c2cc1OC [Example 5, 3-{4-[4-(1H-indol-3-yl)-1-piperdinyl]butyl}-6,7-dimethoxy-4(3H)-quinazolinone] |  | 86.8 nM |  | 
 | 173 nM | 11 nM | COc1cc2ncn(CCCN3CCC(c4c[nH]c5ccccc45)CC3)c(=O)c2cc1OC [Example 7, 3-{3-(4-(1H-indol-3-yl)-1-piperidinyl]propyl}-6-7-dimethoxy-4(3H)-quinazolinone] |  | 201 nM |  | 
 | 1910 nM | 40 nM | O=c1c2cc(Cl)ccc2ncn1CCCN1CCC(c2c[nH]c3ccccc23)CC1 [Example 11, 6-chloro-3-{3-[4-(1H-indol-3-yl)-1-piperidinyl]propyl}-4(3H)-quinazolinone] |  |  | 26% | 
 | 651 nM | 37 nM | O=c1c2ccccc2ncn1CCN1CCC(c2c[nH]c3ccccc23)CC1 [Example 13, 3-{2-[4-(1H-indol-3-yl)-1-piperidinyl]ethyl}-4(3H)-quinazolinone] |  |  | 42% | 
78 °C | 1480 nM | 116 nM | Cn1cc(C2CCN(CCn3cnc4ccccc4c3=O)CC2)c2ccccc21 [Example 14, 3-{2-[4-(1-methyl-1H-indol-3-yl)-1-piperidinyl]ethyl}4-(3H)-quinazolinone] |  |  | 43% | 
 | 190 nM | 16 nM | O=c1c2ccccc2nnn1CCN1CCC(c2c[nH]c3ccccc23)CC1 [Example 17, 3-{2-[4-(1H-indol-3-yl)-1-piperidinyl)ethyl}-1,2,3-benzotriazin-4(3H)-one] |  | 119 nM |  | 
 | 231 nM | 21 nM | Cn1cc(C2CCN(CCn3nnc4ccccc4c3=O)CC2)c2ccccc21 [Example 18, 3-{2-[4-(1-methyl-1H-indol-3-yl)-1-piperidinyl]ethyl}-1,2,3-benzotriazin-4(3H)-one] |  | 80.9 nM |  | 
 |  | 10 nM | O=c1c2ccccc2nnn1CCCN1CCC(c2c[nH]c3ccccc23)CC1 [Example 20, 3-{3-[4-(1H-indol-3-yl)-1-piperidin]propyl}-1,2,3-benzotriazin-4(3H)-one] |  |  | 49% | 
111.7 °C |  |  | O=c1n(CCCN2CCC(c3c[nH]c4ccccc34)CC2)nc2ccccn12 [Example 23, 2-{3-[4-(1H-Indol-3-yl)-piperidin-1-yl]-propyl}-2H-[1,2,4]triazolo[4,3-a]pyridin-3-one] |  |  |  | 
142 °C |  |  | O=c1n(CCN2CCC(c3c[nH]c4ccccc34)CC2)nc2ccccn12 [Example 25, 2-{2-[4-(1H-Indol-3-yl)-piperidin-1-yl]-ethyl}-2H-[1,2,4]triazolo[4,3-a]pyridin-3-one] |  |  |  | 
